Data reported in patent US8372867B2, “Insecticidal aryl isoxazoline derivatives” (Bayer CropScience AG, priority 2007, dated 2013).

How the values were obtained:
Spodoptera litura = test: Test against larva of Spodoptera litura (leaf dip); assay type: in vivo; details: 100 ppm of the active compound; third instar larvae; after 7 days
Experimental: Solvent: Dimethylformamide 3 parts by weight
Emulsifier: Polyoxyethylene alkyl phenyl ether 1 part by weight
(§1) To prepare an appropriate formulation of an active compound, 1 part by weight of the active compound was mixed with the aforementioned amount of the solvent containing the aforementioned amount of the emulsifier, and the mixture was diluted to a prescribed concentration with water.
Leaves of sweet potate were soaked in the test agent diluted to a prescribed concentration with water, air-dried, and placed in a dish of 9 cm in diameter. Into this dish, 10 larvae of Spodoptera litura at the third instar were released and kept in a room at constant temperature of 25° C. After 2 and 4 days, more leaves of sweet potato were added, and the number of dead larvae after 7 days was counted to calculate the death rate. In this test, the test results are presented as an average of the results of two dishes per section.

Aulacophora femoralis = test: Test against Aulacophora femoralis (leaf dip); assay type: in vivo; details: 100 ppm of the active compound; second instar larvae; after 7 days
Experimental: as §1
Leaves of cucumbers were soaked in a diluted aqueous solution of the prescribed concentration of an active compound prepared in the same manner as in the aforementioned tests, air-dried, and placed a plastic cup containing sterilized black soil. Into this cup, 5 larvae of Aulacophora femoralis at second instar were then released. After 7 days, the number of dead larvae was counted to calculate the death rate.

Lucilia cuprina larvae = test: whole plant or invertebrate; details: in Equus caballus, read-out: activity (mortality in %)
Musca domestica = test: whole plant or invertebrate; details: read-out: activity (mortality in %)
[1] = tested on: organic phosphorus agent- and carbamate agent-resistant Myzus persicae; test: Test against organic phosphorus agent- and carbamate agent-resistant Myzus persicae (spray); assay type: in vivo; details: 500 ppm of the active compound; adults on eggplant; 7 days at 28° C.
Experimental: as §1
About 30 to 50 adults of organic phosphorus agent- and carbamate agent-resistant Myzus persicae per seedling were inoculated to leaves of eggplants at two leaf stage cultured in a pot of 6 cm in diameter. One day after the inoculation, an ample amount of the diluted aqueous solution of the prescribed concentration of an active compound prepared in the same manner as in the aforementioned tests was sprayed with a spray gun. After the spraying, the pot was kept in a greenhouse at 28° C. for 7 days, the death rate was calculated. The test was duplicated.

Boophilus microplus = test: whole plant or invertebrate; details: Rhipicephalus microplus, 168 h, read-out: activity (mortality in %)

Row | Structure (SMILES) | death rate (Spodoptera litura) | death rate (Aulacophora femoralis) | other results
1 | CC(=O)NCc1ccc(C2=NOC(C)(c3cccc(F)c3)C2)cc1Br (centres unmarked) [1-97] | 100% | 100% | –
2 | O=C(NCc1ccc(C2=NOC(c3cc(Cl)cc(Cl)c3)(C(F)(F)F)C2)cc1Br)C(F)(F)F (centres unmarked) [1-23] | 100% | 100% | –
3 | CC(=O)NCc1ccc(C2=NOC(c3cc(Cl)cc(Cl)c3)(C(F)(F)F)C2)cc1C#N (centres unmarked) [1-62] | 100% | 100% | –
4 | CC(=O)N(Cc1ccccn1)Cc1ccc(C2=NOC(c3cc(Cl)cc(Cl)c3)(C(F)(F)F)C2)cc1Br (centres unmarked) [1-15, N-{2-bromo-4-[5-(3,5-dichlorophenyl)-5-(trifluoromethyl)-4,5-dihydroisoxazol-3-yl]benzyl}-N-(pyridin-2-ylmethyl)acetamide] | 100% | 100% | mortality at 100 ppm (Lucilia cuprina larvae): ≥ 80%; mortality at 100 ppm (Musca domestica): ≥ 80%
5 | C=CC(=O)NCc1ccc(C2=NOC(c3cc(Cl)cc(Cl)c3)(C(F)(F)F)C2)cc1Br (centres unmarked) [1-36] | 100% | 100% | –
6 | Cc1ccccc1C(=O)NCc1ccc(C2=NOC(c3cc(Cl)cc(Cl)c3)(C(F)(F)F)C2)cc1Br (centres unmarked) [1-35] | 100% | 100% | –
7 | CCC(=O)NCc1ccc(C2=NOC(c3cc(Cl)cc(Cl)c3)(C(F)(F)F)C2)cc1Br (centres unmarked) [1-19] | 100% | 100% | –
8 | CC(=O)NCc1ccc(C2=NOC(c3cc(Cl)cc(Cl)c3)(C(F)(F)F)C2)cc1 (centres unmarked) [1-1, N-{4-[5-(3,5-dichlorophenyl)-5-(trifluoromethyl)-4,5-dihydroisoxazol-3-yl]benzyl}acetamide] | 100% | 100% | mortality at 100 ppm (Lucilia cuprina larvae): ≥ 80%; mortality at 100 ppm (Musca domestica): ≥ 80%
9 | CC(=O)NCc1ccc(C2=NOC(C)(c3cc(Cl)cc(Cl)c3)C2)cc1Br (centres unmarked) [1-93] | – | 100% | –
10 | O=C(NCc1ccc(C2=NOC(c3cc(Cl)cc(Cl)c3)(C(F)(F)F)C2)cc1Br)c1ccccc1 (centres unmarked) [1-24] | 100% | 100% | –
11 | CC(=O)NCc1ccc(C2=NOC(c3cc(Cl)cc(Cl)c3)(C(F)(F)F)C2)cc1F (centres unmarked) [1-57] | 100% | 100% | –
12 | CC(=O)N(C)Cc1ccc(C2=NOC(c3cc(Cl)cc(Cl)c3)(C(F)(F)F)C2)cc1Br (centres unmarked) [1-46] | 100% | 100% | –
13 | O=C(NCc1ccc(C2=NOC(c3cc(Cl)cc(Cl)c3)(C(F)(F)F)C2)cc1Br)c1ccncc1 (centres unmarked) [1-27] | 100% | 100% | –
14 | CC(=O)NCc1ccc(C2=NOC(c3ccc(C(F)(F)F)cc3)(C(F)(F)F)C2)cc1Br (centres unmarked) [1-100] | 100% | 100% | –
15 | CC(=O)NCc1ccc(C2=NOC(c3cccc(C(F)(F)F)c3)(C(F)(F)F)C2)cc1Br (centres unmarked) [1-99] | 100% | 100% | –
16 | O=CNCc1ccc(C2=NOC(c3cc(Cl)cc(Cl)c3)(C(F)(F)F)C2)cc1Br (centres unmarked) [1-12] | 100% | 100% | –
17 | CC(=O)N(Cc1ccc(C2=NOC(c3cc(Cl)cc(Cl)c3)(C(F)(F)F)C2)cc1Br)N=C(C)C (centres unmarked) [1-90] | 100% | – | –
18 | CC(=O)NCc1ccc(C2=NOC(c3cc(Cl)cc(Cl)c3)(C(F)(F)F)C2)cc1Br (centres unmarked) [1-13] | 100% | 100% | –
19 | CC(=O)N(Cc1ccccn1)C(C#N)c1ccc(C2=NOC(c3cc(Cl)cc(Cl)c3)(C(F)(F)F)C2)cc1 (centres unmarked) [1-11, N-(cyano{4-[5-(3,5-dichlorophenyl)-5-(trifluoromethyl)-4,5-dihydroisoxazol-3-yl]phenyl}methyl)-N-(pyridin-2-ylmethyl)-acetamide] | 100% | 100% | –
20 | O=C(NCc1ccc(C2=NOC(c3cc(Cl)cc(Cl)c3)(C(F)(F)F)C2)cc1Br)c1cccnc1 (centres unmarked) [1-26] | 100% | 100% | –
21 | O=C(NCc1ccc(C2=NOC(c3cc(Cl)cc(Cl)c3)(C(F)(F)F)C2)cc1Br)c1ccccn1 (centres unmarked) [1-25] | 100% | – | –
22 | CC(C)C(=O)NCc1ccc(C2=NOC(c3cc(Cl)cc(Cl)c3)(C(F)(F)F)C2)cc1Br (centres unmarked) [1-21] | 100% | 100% | –
23 | CC(=O)NCc1ccc(C2=NOC(c3cccc(C#N)c3)(C(F)(F)F)C2)cc1Br (centres unmarked) [1-106] | – | 100% | –

Row | Structure (SMILES) | death rate (Spodoptera litura) | death rate (Aulacophora femoralis) | other results
24 | CC(=O)NCc1ccc(C2=NOC(c3cc(C(F)(F)F)cc(C(F)(F)F)c3)(C(F)(F)F)C2)cc1Br (centres unmarked) [1-101] | 100% | 100% | –
25 | O=C(NCc1ccc(C2=NOC(c3cc(Cl)cc(Cl)c3)(C(F)(F)F)C2)cc1Br)c1ccccc1Cl (centres unmarked) [1-31] | 100% | 100% | death rate [1]: 100%
26 | CCC(=O)N(Cc1ccc(C2=NOC(c3cc(Cl)cc(Cl)c3)(C(F)(F)F)C2)cc1)Cc1ccccn1 (centres unmarked) [1-6] | 100% | 100% | –
27 | CC(=O)N(Cc1ccc(C2=NOC(c3cc(Cl)cc(Cl)c3)(C(F)(F)F)C2)cc1)C(C)=O (centres unmarked) [1-2] | 100% | 100% | –
28 | CCCC(=O)NCc1ccc(C2=NOC(c3cc(Cl)cc(Cl)c3)(C(F)(F)F)C2)cc1Br (centres unmarked) [1-20] | 100% | 100% | –
29 | CN(C)C(=O)NCc1ccc(C2=NOC(c3cc(Cl)cc(Cl)c3)(C(F)(F)F)C2)cc1Br (centres unmarked) [1-41] | 100% | 100% | –
30 | CC(=O)NCc1ccc(C2=NOC(c3ccc(Cl)c(Cl)c3)(C(F)(F)F)C2)cc1Br (centres unmarked) [1-94] | 100% | 100% | –
31 | CC(=O)NCc1ccc(C2=NOC(c3cc(Cl)cc(Cl)c3)(C(F)(F)F)C2)cc1[N+](=O)[O-] (centres unmarked) [1-60, N-{4-[5-(3,5-dichlorophenyl)-5-(trifluoromethyl)-4,5-dihydroisoxazol-3-yl]-2-nitrobenzyl}acetamide] | 100% | 100% | mortality at 100 ppm (Lucilia cuprina larvae): ≥ 80%; mortality at 100 ppm (Musca domestica): ≥ 80%; mortality at 100 ppm (Boophilus microplus): ≥ 80%
32 | O=CN(Cc1ccc(C2=NOC(c3cc(Cl)cc(Cl)c3)(C(F)(F)F)C2)cc1)Cc1ccccn1 (centres unmarked) [1-4] | 100% | – | –
33 | CC(=O)NCc1ccc(C2=NOC(c3cccc([N+](=O)[O-])c3)(C(F)(F)F)C2)cc1Br (centres unmarked) [1-102] | – | 100% | –
34 | CSC(=O)NCc1ccc(C2=NOC(c3cc(Cl)cc(Cl)c3)(C(F)(F)F)C2)cc1Br (centres unmarked) [1-43] | 100% | – | –
35 | O=C(NCc1ccc(C2=NOC(c3cc(Cl)cc(Cl)c3)(C(F)(F)F)C2)cc1Br)c1ccccc1F (centres unmarked) [1-28] | 100% | 100% | –
36 | CC(=O)NCc1ccc(C2=NOC(c3cc(Cl)cc(Cl)c3)(C(F)(F)F)C2)cc1C (centres unmarked) [1-63, N-{4-[5-(3,5-dichlorophenyl)-5-(trifluoromethyl)-4,5-dihydroisoxazol-3-yl]-2-methylbenzyl}acetamide] | 100% | 100% | mortality at 100 ppm (Lucilia cuprina larvae): ≥ 80%; mortality at 100 ppm (Musca domestica): ≥ 80%; mortality at 100 ppm (Boophilus microplus): ≥ 80%
37 | CNC(=O)NCc1ccc(C2=NOC(c3cc(Cl)cc(Cl)c3)(C(F)(F)F)C2)cc1Br (centres unmarked) [1-40] | 100% | 100% | –
38 | CC(=O)N(Cc1ccncc1)Cc1ccc(C2=NOC(c3cc(Cl)cc(Cl)c3)(C(F)(F)F)C2)cc1Br (centres unmarked) [1-17] | 100% | 100% | –
39 | CC(=O)NCc1ccc(C2=NOC(c3cc(Cl)cc(Cl)c3)(C(F)(F)F)C2)cc1I (centres unmarked) [1-59] | 100% | 100% | –
40 | CC(=O)NCc1ccc(C2=NOC(c3cccc(Cl)c3)(C(F)(F)F)C2)cc1Br (centres unmarked) [1-98] | 100% | 100% | –
41 | O=C(NCc1ccc(C2=NOC(c3cc(Cl)cc(Cl)c3)(C(F)(F)F)C2)cc1Br)c1cccc(Cl)c1 (centres unmarked) [1-32] | 100% | 100% | –
42 | O=C(NCc1ccc(C2=NOC(c3cc(Cl)cc(Cl)c3)(C(F)(F)F)C2)cc1Br)c1ccc(Cl)cc1 (centres unmarked) [1-33] | – | 100% | –
43 | CC(=O)N(Cc1cccnc1)Cc1ccc(C2=NOC(c3cc(Cl)cc(Cl)c3)(C(F)(F)F)C2)cc1Br (centres unmarked) [1-16] | 100% | 100% | –
44 | CC(=O)NCc1ccc(C2=NOC(c3cc(Cl)cc(Cl)c3)(C(F)(F)F)C2)cc1Cl (centres unmarked) [1-58] | 100% | 100% | –
45 | O=C(NCc1ccc(C2=NOC(c3cc(Cl)cc(Cl)c3)(C(F)(F)F)C2)cc1Br)c1ccccc1Br (centres unmarked) [1-34] | 100% | 100% | –
46 | CS(=O)(=O)NCc1ccc(C2=NOC(c3cc(Cl)cc(Cl)c3)(C(F)(F)F)C2)cc1Br (centres unmarked) [1-38] | 100% | 100% | –
